Experimental data: patent US6949648B2, “Condensed pyrazole derivatives, process for producing the same and use thereof” (Takeda Pharmaceutical Company Limited, priority 2000, dated 2005)
Counter-ions that a name gives are not always drawn.

Row | Compound | melting point
1 | CCOC(=O)c1nn(-c2ccccn2)c2nc3ccccc3c(Cl)c12 [Example 2-179, Ethyl 4-chloro-1-(2-pyridinyl)-1H-pyrazolo[3,4-b]quinoline-3-carboxylate] | 164 to 166 °C
2 | CCOc1c2ccccc2nc2c1c(C)nn2-c1ccccn1 [Example 2-16, 4-Ethoxy-3-methyl-1-(2-pyridinyl)-1H-pyrazolo[3,4-b]quinoline] | 121 to 123 °C
3 | Cc1nn(-c2ccc(Cl)cn2)c2nc3ccccc3c(Cl)c12 [Example 2-113, 4-Chloro-1-(5-chloro-2-pyridinyl)-3-methyl-1H-pyrazolo[3,4-b]quinoline] | 216 to 217 °C
4 | Cc1nn(-c2ccccn2)c2ncc(C(=O)Nc3ccccc3)c(O)c12 [Example 1-11, 4-Hydroxy-3-methyl-N-phenyl-1-(2-pyridinyl)-1H-pyrazolo[3,4-b]pyridine-5-carboxamide] | > 300 °C
5 | Cc1nn(-c2ccccn2)c2nc3ccccc3c(OC3CCCCC3)c12 [Example 2-22, 4-Cyclohexyloxy-3-methyl-1-(2-pyridinyl)-1H-pyrazolo[3,4-b]quinoline] | 88 to 91 °C
6 | Fc1cc2nc3c(cnn3-c3ccccn3)c(Cl)c2cc1F [Example 2-198, 4-Chloro-6,7-difluoro-1-(2-pyridinyl)-1H-pyrazolo[3,4-b]quinoline] | 167 to 168 °C
7 | Clc1c2ccccc2nc2c1c(CBr)nn2-c1ccccn1 [Example 2-168, 3-Bromomethyl-4-chloro-1-(2-pyridinyl)-1H-pyrazolo[3,4-b]quinoline] | 203 to 205 °C
8 | Cc1cccnc1-n1nc(C)c2c(Cl)c3ccccc3nc21 [Example 2-118, 4-Chloro-3-methyl-1-(3-methyl-2-pyridinyl)-1H-pyrazolo[3,4-b]quinoline] | 160 to 161 °C
9 | Clc1c2ccccc2nc2c1cnn2-c1ccccn1 [Example 2-157, 4-Chloro-1-(2-pyridinyl)-1H-pyrazolo[3,4-b]quinoline] | 153 to 156 °C
10 | Cc1nn(-c2ncccn2)c2[nH]c3ccccc3c(=O)c12 [Example 2-146, 3-Methyl-1-(2-pyrimidinyl)-1,9-dihydro-4H-pyrazolo[3,4-b]quinolin-4-one] | 263 to 264 °C
11 | Clc1ccc2nc3c(cnn3-c3ccccn3)c(Cl)c2c1 [Example 2-160, 4,6-Dichloro-1-(2-pyridinyl)-1H-pyrazolo[3,4-b]quinoline] | 175 to 176 °C
12 | CCCc1c2ccccc2nc2c1c(C)nn2-c1ccccn1 [Example 2-103, 3-Methyl-4-propyl-1-(2-pyridinyl)-1H-pyrazolo[3,4-b]quinoline] | 108 to 109 °C
13 | Cc1ccc(-n2nc(C)c3c(Cl)c4cccc(C)c4nc32)nc1 [Example 2-131, 4-Chloro-3,8-dimethyl-1-(5-methyl-2-pyridinyl)-1H-pyrazolo[3,4-b]quinoline] | 165 to 168 °C
14 | CC(C)c1nn(-c2ccccn2)c2nc3ccccc3c(Cl)c12 [Example 2-172, 4-Chloro-3-isopropyl-1-(2-pyridinyl)-1H-pyrazolo[3,4-b]quinoline] | 146 to 148 °C
15 | Cc1nn(-c2ccccn2)c2nc3ccc(Cl)cc3c(Cl)c12 [Example 2-70, 4,6-Dichloro-3-methyl-1-(2-pyridinyl)-1H-pyrazolo[3,4-b]quinoline] | 233 to 235 °C
16 | Cc1cccc(-n2nc(C)c3c(=O)c4ccccc4[nH]c32)n1 [Example 2-208, 3-Methyl-1-(6-methyl-2-pyridinyl)-1,9-dihydro-4H-pyrazolo[3,4-b]quinolin-4-one] | 252 °C

Row | Compound | melting point
17 | Cc1nn(-c2ccccn2)c2[nH]c3cc(C(=O)O)ccc3c(=O)c12 [Example 2-68, 3-Methyl-4-oxo-1-(2-pyridinyl)-4,9-dihydro-1H-pyrazolo[3,4-b]quinoline-7-carboxylic acid] | > 300 °C
18 | Cc1nn(-c2ccccn2)c2nc3ccccc3c(NC3CC3)c12.Cl | 208 to 211 °C
19 | COc1c2ccccc2nc2c1c(C)nn2-c1cccnc1 [Example 2-139, 4-Methoxy-3-methyl-1-(3-pyridinyl)-1H-pyrazolo[3,4-b]quinoline] | 126 to 128 °C
20 | Cc1ccc(-n2nc(C)c3c(N)c4cccc(C)c4nc32)nc1 [Example 2-132, 3,8-Dimethyl-1-(5-methyl-2-pyridinyl)-1H-pyrazolo[3,4-b]quinolin-4-ylamine] | 257 to 260 °C
21 | Cc1nn(-c2ccncc2)c2[nH]c3cc(F)c(F)cc3c(=O)c12.Cl.Cl | 237 to 240 °C
22 | Cc1nn(-c2ccccn2)c2nc3ccccc3c(N3CCOCC3)c12 [Example 2-11, 3-Methyl-4-(4-morpholinyl)-1-(2-pyridinyl)-1H-pyrazolo[3,4-b]quinoline] | 203 to 205 °C
23 | Cc1cccnc1-n1nc(C)c2c(=O)c3cccc(C)c3[nH]c21 (as salt: salt) [Example 2-135, 3,8-Dimethyl-1-(3-methyl-2-pyridinyl)-1,9-dihydro-4H-pyrazolo[3,4-b]quinolin-4-one] | 193 to 195 °C
24 | Cc1nn(-c2ccccn2)c2ncc(C(=O)NCc3ccccc3)c(O)c12 [Example 1-9, N-Benzyl-4-hydroxy-3-methyl-1-(2-pyridinyl)-1H-pyrazolo[3,4-b]pyridine-5-carboxamide] | > 300 °C
25 | Cc1nn(-c2ccccn2)c2nc3cc(Cl)c(F)cc3c(Cl)c12 [Example 2-96, 4,7-Dichloro-6-fluoro-3-methyl-1-(2-pyridinyl)-1H-pyrazolo[3,4-b]quinoline] | 214 to 215 °C
26 | Cc1nn(-c2ccccn2)c2[nH]c3cc(Cl)c(F)cc3c(=O)c12 [Example 2-97, 7-Chloro-6-fluoro-3-methyl-1-(2-pyridinyl)-1,9-dihydro-4H-pyrazolo[3,4-b]quinolin-4-one] | 264 to 265 °C
27 | Cc1nn(-c2ccccn2)c2nc3ccsc3c(Cl)c12 [Example 2-155, 4-Chloro-3-methyl-1-(2-pyridinyl)-1H-pyrazolo[3,4-b]thieno[2,3-e]pyridine] | 230 to 231 °C
28 | Cc1nn(-c2ccncc2)c2nc3ccccc3c(N(C)C)c12 [Example 2-142, N,N-Dimethyl-N-[3-methyl-1-(4-pyridinyl)-1H-pyrazolo[3,4-b]quinolin-4-yl]amine] | 155 to 156 °C
29 | Cc1nn(-c2ccccn2)c2[nH]c3cc([N+](=O)[O-])ccc3c(=O)c12 [Example 2-58, 3-Methyl-7-nitro-1-(2-pyridinyl)-1,9-dihydro-4H-pyrazolo[3,4-b]quinolin-4-one] | > 300 °C
30 | Cc1cccc2c(N)c3c(C)nn(-c4ccc5ccccc5n4)c3nc12 [Example 2-153, 3,8-Dimethyl-1-(2-quinolinyl)-1H-pyrazolo[3,4-b]quinolin-4-ylamine] | 273 to 276 °C
31 | Cc1nn(-c2ccccn2)c2nc3ccc(Br)cc3c(Cl)c12 [Example 2-86, 6-Bromo-4-chloro-3-methyl-1-(2-pyridinyl)-1H-pyrazolo[3,4-b]quinoline] | 234 to 235 °C
32 | Cc1ccc(-n2nc(C)c3c(Cl)c4ccccc4nc32)nc1 [Example 2-115, 4-Chloro-3-methyl-1-(5-methyl-2-pyridinyl)-1H-pyrazolo[3,4-b]quinoline] | 197 to 200 °C
